Assay results from patent US9340590B2 (priority 2011, dated 2016).
Positions of bridges follow the written chain, without caps; N, C: chain ends. Residues, ends and D or L forms follow the SMILES beside them.

Assays:
Test in all cases: cell-based
hNav1.3 = hNav1.3 (Homo sapiens, UniProt Q9NY46); settings: IonWorks Quattro, use-dependent protocol, hNav1.3; read-out: IWQ Use Nav1.3
hNav1.5 = hNav1.5 (Homo sapiens, UniProt Q14524); settings: IonWorks Quattro, use-dependent protocol, hNav1.5; read-out: IWQ Use Nav1.5
hNav1.7 = hNav1.7 (Homo sapiens, UniProt Q15858); format: cell-based; settings: IonWorks Quattro, use-dependent protocol, hNav1.7; read-out: IWQ Use Nav1.7
Chain of hNav1.7 (Q15858 whole entry, looked up): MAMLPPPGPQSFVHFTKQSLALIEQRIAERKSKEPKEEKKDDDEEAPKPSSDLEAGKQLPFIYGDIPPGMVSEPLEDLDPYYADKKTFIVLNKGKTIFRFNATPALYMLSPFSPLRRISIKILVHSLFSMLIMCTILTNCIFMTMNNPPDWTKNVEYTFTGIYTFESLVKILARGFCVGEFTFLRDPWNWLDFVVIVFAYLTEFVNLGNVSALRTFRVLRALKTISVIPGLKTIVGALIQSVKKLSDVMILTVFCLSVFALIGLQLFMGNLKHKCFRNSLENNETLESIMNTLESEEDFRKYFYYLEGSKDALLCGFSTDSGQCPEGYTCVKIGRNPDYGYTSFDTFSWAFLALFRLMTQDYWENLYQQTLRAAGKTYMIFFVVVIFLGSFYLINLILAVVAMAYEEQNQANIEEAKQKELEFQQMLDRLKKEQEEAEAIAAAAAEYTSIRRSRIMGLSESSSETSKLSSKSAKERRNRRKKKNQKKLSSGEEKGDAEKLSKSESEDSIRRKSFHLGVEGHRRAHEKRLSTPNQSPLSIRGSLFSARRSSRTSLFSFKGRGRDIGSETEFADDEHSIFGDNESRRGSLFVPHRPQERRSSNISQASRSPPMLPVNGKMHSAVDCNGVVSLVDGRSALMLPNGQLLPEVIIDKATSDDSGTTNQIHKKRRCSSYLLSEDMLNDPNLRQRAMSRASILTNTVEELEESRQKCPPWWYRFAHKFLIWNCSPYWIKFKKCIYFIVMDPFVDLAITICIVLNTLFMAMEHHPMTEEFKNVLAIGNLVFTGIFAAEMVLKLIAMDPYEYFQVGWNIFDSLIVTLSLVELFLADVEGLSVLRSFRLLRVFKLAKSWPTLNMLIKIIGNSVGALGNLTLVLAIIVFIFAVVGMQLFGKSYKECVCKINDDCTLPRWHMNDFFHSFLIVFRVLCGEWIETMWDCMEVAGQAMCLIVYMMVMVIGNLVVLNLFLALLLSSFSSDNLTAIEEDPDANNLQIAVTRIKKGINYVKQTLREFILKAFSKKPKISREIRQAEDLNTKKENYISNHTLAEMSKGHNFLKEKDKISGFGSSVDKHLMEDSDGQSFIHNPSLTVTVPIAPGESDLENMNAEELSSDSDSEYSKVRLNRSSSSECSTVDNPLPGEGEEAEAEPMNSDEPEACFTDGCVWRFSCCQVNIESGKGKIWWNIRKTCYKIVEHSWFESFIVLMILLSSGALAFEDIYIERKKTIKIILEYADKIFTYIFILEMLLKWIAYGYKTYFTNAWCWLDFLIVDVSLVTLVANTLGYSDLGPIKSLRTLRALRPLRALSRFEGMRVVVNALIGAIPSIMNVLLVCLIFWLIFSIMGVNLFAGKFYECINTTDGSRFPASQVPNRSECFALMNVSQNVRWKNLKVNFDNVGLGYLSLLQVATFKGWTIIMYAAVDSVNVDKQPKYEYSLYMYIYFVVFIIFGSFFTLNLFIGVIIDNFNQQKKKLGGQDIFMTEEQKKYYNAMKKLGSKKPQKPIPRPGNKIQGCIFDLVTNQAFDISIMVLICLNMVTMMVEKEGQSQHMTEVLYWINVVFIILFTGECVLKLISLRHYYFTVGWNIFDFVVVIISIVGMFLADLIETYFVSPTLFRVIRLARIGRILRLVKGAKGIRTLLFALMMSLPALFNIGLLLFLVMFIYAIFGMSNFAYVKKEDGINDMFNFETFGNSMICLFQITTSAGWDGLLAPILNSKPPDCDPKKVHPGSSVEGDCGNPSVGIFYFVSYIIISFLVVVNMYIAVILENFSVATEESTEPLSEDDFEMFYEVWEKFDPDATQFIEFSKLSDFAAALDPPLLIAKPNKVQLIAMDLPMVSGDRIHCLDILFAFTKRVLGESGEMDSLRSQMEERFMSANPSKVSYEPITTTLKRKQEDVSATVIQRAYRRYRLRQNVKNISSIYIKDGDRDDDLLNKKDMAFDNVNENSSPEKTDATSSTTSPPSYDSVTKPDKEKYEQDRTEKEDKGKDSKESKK

Chain of hNav1.5 (Q14524 whole entry, looked up): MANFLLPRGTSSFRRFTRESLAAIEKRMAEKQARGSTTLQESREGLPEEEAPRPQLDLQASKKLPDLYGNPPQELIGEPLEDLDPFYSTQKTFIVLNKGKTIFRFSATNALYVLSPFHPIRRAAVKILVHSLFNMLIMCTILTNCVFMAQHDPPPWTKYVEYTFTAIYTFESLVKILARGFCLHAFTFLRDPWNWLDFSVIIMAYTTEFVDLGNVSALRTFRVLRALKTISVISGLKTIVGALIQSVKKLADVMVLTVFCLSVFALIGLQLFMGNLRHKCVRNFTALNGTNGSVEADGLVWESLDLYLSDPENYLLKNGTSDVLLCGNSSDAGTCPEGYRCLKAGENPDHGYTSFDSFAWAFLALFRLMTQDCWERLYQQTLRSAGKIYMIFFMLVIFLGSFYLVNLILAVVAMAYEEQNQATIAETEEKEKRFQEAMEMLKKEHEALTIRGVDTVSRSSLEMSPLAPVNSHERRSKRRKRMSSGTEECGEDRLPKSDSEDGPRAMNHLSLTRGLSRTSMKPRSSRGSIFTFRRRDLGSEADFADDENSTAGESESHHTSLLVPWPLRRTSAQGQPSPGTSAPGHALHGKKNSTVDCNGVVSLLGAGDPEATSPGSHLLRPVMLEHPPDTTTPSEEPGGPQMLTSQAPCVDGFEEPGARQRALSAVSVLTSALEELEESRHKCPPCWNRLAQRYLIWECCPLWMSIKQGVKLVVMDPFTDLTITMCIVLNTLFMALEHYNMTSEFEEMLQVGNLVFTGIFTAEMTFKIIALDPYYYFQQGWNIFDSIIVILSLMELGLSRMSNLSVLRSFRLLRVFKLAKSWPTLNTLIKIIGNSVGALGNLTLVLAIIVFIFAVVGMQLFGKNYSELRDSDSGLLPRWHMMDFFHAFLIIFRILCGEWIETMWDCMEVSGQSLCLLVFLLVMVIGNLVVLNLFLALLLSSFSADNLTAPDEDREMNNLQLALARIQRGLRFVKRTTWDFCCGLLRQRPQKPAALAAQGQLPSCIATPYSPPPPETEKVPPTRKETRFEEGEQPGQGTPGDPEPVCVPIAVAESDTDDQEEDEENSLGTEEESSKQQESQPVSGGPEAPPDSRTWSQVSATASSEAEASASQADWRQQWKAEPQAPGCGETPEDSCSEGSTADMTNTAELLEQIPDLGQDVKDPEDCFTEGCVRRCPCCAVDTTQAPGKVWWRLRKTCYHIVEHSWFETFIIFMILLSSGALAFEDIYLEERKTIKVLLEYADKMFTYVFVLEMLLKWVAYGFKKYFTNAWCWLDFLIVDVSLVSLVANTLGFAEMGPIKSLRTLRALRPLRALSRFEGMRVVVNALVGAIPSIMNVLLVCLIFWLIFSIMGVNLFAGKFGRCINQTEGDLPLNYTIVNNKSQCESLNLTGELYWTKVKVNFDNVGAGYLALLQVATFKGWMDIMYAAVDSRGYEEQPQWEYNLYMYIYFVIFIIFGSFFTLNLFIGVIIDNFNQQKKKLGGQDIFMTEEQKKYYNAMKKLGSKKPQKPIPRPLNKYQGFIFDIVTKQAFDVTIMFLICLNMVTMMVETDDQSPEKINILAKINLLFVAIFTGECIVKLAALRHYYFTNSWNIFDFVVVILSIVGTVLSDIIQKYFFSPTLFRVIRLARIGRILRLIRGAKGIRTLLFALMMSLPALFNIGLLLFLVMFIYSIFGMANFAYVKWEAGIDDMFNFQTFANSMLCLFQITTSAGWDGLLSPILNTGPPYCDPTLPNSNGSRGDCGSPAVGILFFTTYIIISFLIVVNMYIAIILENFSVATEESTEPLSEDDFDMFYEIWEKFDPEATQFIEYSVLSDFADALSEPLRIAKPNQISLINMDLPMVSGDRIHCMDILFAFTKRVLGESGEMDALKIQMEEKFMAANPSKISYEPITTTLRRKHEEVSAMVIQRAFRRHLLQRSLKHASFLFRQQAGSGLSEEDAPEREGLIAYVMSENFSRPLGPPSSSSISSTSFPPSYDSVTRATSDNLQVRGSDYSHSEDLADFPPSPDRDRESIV

Q: CC[C@H](C)[C@@H]1NC(=O)[C@@H]2CSSC[C@@H]3NC(=O)[C@H](C(C)C)NC(=O)[C@H](CC(C)C)NC(=O)[C@H](CC(N)=O)NC(=O)[C@@H]4CCCN4C(=O)[C@H](CCCNC(=N)N)NC(=O)[C@H](CSSC[C@H](NC(=O)[C@@H](N)CC(=O)O)C(=O)N[C@@H](CC(C)C)C(=O)NCC(=O)N[C@@H](C)C(=O)N[C@@H](Cc4ccc(O)cc4)C(=O)N[C@@H](CCCNC(=N)N)C(=O)N[C@@H](CCCCN)C(=O)N2)NC(=O)[C@H](CSSC[C@@H](C(=O)N[C@@H](CCCCN)C(=O)N[C@@H](Cc2ccc(O)cc2)C(=O)N[C@H](C(=O)N[C@@H](Cc2ccccc2)C(N)=O)C(C)C)NC(=O)[C@H](Cc2c[nH]c4ccccc24)NC(=O)[C@H](CCCCN)NC(=O)[C@H](Cc2c[nH]cn2)NC(=O)[C@H]([C@@H](C)O)NC(=O)[C@H](CCCNC(=N)N)NC(=O)[C@H](CO)NC3=O)NC(=O)[C@H](CCCCN)NC(=O)[C@H](CC(=O)O)NC(=O)[C@H](CC(N)=O)NC(=O)[C@H](CC(=O)O)NC(=O)[C@@H]2CCCN2C1=O [compound 698] (H-DCLGAYRKCIPDNDKCCRPNLVCSRTHKWCKYVF-NH2; disulfide 2-17, 9-23, 16-30) was tested. Which IC50 (hNav1.3) did it give?
A: > 5 µM

Q: What about the IC50 (hNav1.5) of the same compound?
A: > 5 µM

Q: And the IC50 (hNav1.7)?
A: 4.4 µM

Q: How did the IC50 (hNav1.3) turn out when CC[C@H](C)[C@@H]1NC(=O)[C@@H]2CSSC[C@@H]3NC(=O)[C@H](C(C)C)NC(=O)[C@H](CC(C)C)NC(=O)[C@H](CC(N)=O)NC(=O)[C@@H]4CCCN4C(=O)[C@H](CCCNC(=N)N)NC(=O)[C@H](CSSC[C@H](NC(=O)[C@@H](N)CC(=O)O)C(=O)N[C@@H](CC(C)C)C(=O)NCC(=O)N[C@@H](C)C(=O)N[C@@H](Cc4cn(C)c5ccccc45)C(=O)N[C@@H](CCCNC(=N)N)C(=O)N[C@@H](CCCCN)C(=O)N2)NC(=O)[C@H](CSSC[C@@H](C(=O)N[C@@H](CCCCN)C(=O)N[C@@H](Cc2ccc(O)cc2)C(=O)N[C@H](C(=O)N[C@@H](Cc2ccccc2)C(N)=O)C(C)C)NC(=O)[C@H](Cc2c[nH]c4ccccc24)NC(=O)[C@H](CCCCN)NC(=O)[C@H](Cc2c[nH]cn2)NC(=O)[C@H]([C@@H](C)O)NC(=O)[C@H](CCCNC(=N)N)NC(=O)[C@H](CO)NC3=O)NC(=O)[C@H](CCCCN)NC(=O)[C@H](CC(=O)O)NC(=O)[C@H](CC(N)=O)NC(=O)[C@H](CC(=O)O)NC(=O)[C@@H]2CCCN2C1=O [compound 699] was run?
A: 0.32 µM

Q: And the IC50 (hNav1.5)?
A: > 5 µM

Q: What about the IC50 (hNav1.7) of the same compound?
A: 0.34 µM

Q: For CSCC[C@@H]1NC(=O)[C@H](C)NC(=O)CNC(=O)[C@H](CC(C)C)NC(=O)[C@@H](NC(=O)[C@@H](N)CC(=O)O)CSSC[C@@H]2NC(=O)[C@@H]3CSSC[C@@H](C(=O)N[C@@H](CCCCN)C(=O)N[C@@H](Cc4ccc(O)cc4)C(=O)N[C@H](C(=O)N[C@@H](Cc4ccccc4)C(N)=O)C(C)C)NC(=O)[C@H](Cc4c[nH]c5ccccc45)NC(=O)[C@H](CCCCN)NC(=O)[C@H](Cc4c[nH]cn4)NC(=O)[C@H]([C@@H](C)O)NC(=O)[C@H](CCCNC(=N)N)NC(=O)[C@H](CO)NC(=O)[C@H](CSSC[C@H](NC(=O)[C@H](CCCCN)NC(=O)[C@H](CCCNC(=N)N)NC1=O)C(=O)N[C@@H](CC(=O)O)C(=O)N1CCC[C@H]1C(=O)N[C@@H](CC(=O)O)C(=O)N[C@@H](CC(N)=O)C(=O)N[C@@H](CC(=O)O)C(=O)N[C@@H](CCCCN)C(=O)N3)NC(=O)[C@H](C(C)C)NC(=O)[C@H](CC(C)C)NC(=O)[C@H](CC(N)=O)NC(=O)[C@@H]1CCCN1C(=O)[C@H](CCCNC(=N)N)NC2=O [compound 700] (H-DCLGAMRKCDPDNDKCCRPNLVCSRTHKWCKYVF-NH2; disulfide 2-17, 9-23, 16-30), which IC50 (hNav1.3) is on record?
A: 0.84 µM

Q: What about the IC50 (hNav1.5) of the same compound?
A: 35 µM

Q: What about the IC50 (hNav1.7) of the same compound?
A: 0.74 µM

Q: CSCC[C@@H]1NC(=O)[C@H](C)NC(=O)CNC(=O)[C@H](CC(C)C)NC(=O)[C@@H](NC(=O)[C@@H](N)CC(=O)O)CSSC[C@@H]2NC(=O)[C@@H]3CSSC[C@@H](C(=O)N[C@@H](CCCCN)C(=O)N[C@@H](Cc4ccc(O)cc4)C(=O)N[C@H](C(=O)N[C@@H](Cc4ccccc4)C(N)=O)C(C)C)NC(=O)[C@H](Cc4c[nH]c5ccccc45)NC(=O)[C@H](CCCCN)NC(=O)[C@H](Cc4c[nH]cn4)NC(=O)[C@H]([C@@H](C)O)NC(=O)[C@H](CCCNC(=N)N)NC(=O)[C@H](CO)NC(=O)[C@H](CSSC[C@H](NC(=O)[C@H](CCCCN)NC(=O)[C@H](CCCNC(=N)N)NC1=O)C(=O)N[C@@H](CC(=O)O)C(=O)N1CCC[C@H]1C(=O)N[C@@H](CCC(=O)O)C(=O)N[C@@H](CC(N)=O)C(=O)N[C@@H](CC(=O)O)C(=O)N[C@@H](CCCCN)C(=O)N3)NC(=O)[C@H](C(C)C)NC(=O)[C@H](CC(C)C)NC(=O)[C@H](CC(N)=O)NC(=O)[C@@H]1CCCN1C(=O)[C@H](CCCNC(=N)N)NC2=O [compound 701] (H-DCLGAMRKCDPENDKCCRPNLVCSRTHKWCKYVF-NH2; disulfide 2-17, 9-23, 16-30) was tested. Which IC50 (hNav1.3) did it give?
A: 1.5 µM

Q: What about the IC50 (hNav1.5) of the same compound?
A: 43 µM

Q: What about the IC50 (hNav1.7) of the same compound?
A: 0.97 µM

Q: Which IC50 (hNav1.3) does the source give for CC(C)C[C@@H]1NC(=O)[C@@H](NC(=O)[C@@H](N)CC(=O)O)CSSC[C@@H]2NC(=O)[C@@H]3CSSC[C@@H](C(=O)N[C@@H](CCCCN)C(=O)N[C@@H](Cc4ccc(O)cc4)C(=O)N[C@H](C(=O)N[C@@H](Cc4ccccc4)C(N)=O)C(C)C)NC(=O)[C@H](Cc4c[nH]c5ccccc45)NC(=O)[C@H](CCCCN)NC(=O)[C@H](Cc4c[nH]cn4)NC(=O)[C@H]([C@@H](C)O)NC(=O)[C@H](CCCNC(=N)N)NC(=O)[C@H](CO)NC(=O)[C@H](CSSC[C@H](NC(=O)[C@H](CCCCN)NC(=O)[C@H](CCCNC(=N)N)NC(=O)[C@H](Cc4ccccc4)NC(=O)[C@H](C)NC(=O)CNC1=O)C(=O)N[C@@H](CC(=O)O)C(=O)N1CCC[C@H]1C(=O)N[C@@H](CC(=O)O)C(=O)N[C@@H](CC(N)=O)C(=O)N[C@@H](CC(=O)O)C(=O)N[C@@H](CCCCN)C(=O)N3)NC(=O)[C@H](C(C)C)NC(=O)[C@H](CC(C)C)NC(=O)[C@H](CC(N)=O)NC(=O)[C@@H]1CCCN1C(=O)[C@H](CCCNC(=N)N)NC2=O [compound 702] (H-DCLGAFRKCDPDNDKCCRPNLVCSRTHKWCKYVF-NH2; disulfide 2-17, 9-23, 16-30) here?
A: 0.37 µM

Q: And the IC50 (hNav1.5)?
A: 43 µM

Q: What about the IC50 (hNav1.7) of the same compound?
A: 0.72 µM

Q: CC[C@H](C)[C@@H]1NC(=O)[C@@H]2CSSC[C@@H]3NC(=O)[C@H](C(C)C)NC(=O)[C@H](CC(C)C)NC(=O)[C@H](CC(N)=O)NC(=O)[C@@H]4CCCN4C(=O)[C@H](CCCNC(=N)N)NC(=O)[C@H](CSSC[C@H](NC(=O)[C@@H](N)CC(=O)O)C(=O)N[C@@H](CC(C)C)C(=O)NCC(=O)N[C@@H](C)C(=O)N[C@@H](Cc4ccccc4)C(=O)N[C@@H](CCCNC(=N)N)C(=O)N[C@@H](CCCCN)C(=O)N2)NC(=O)[C@H](CSSC[C@@H](C(=O)N[C@@H](CCCCN)C(=O)N[C@@H](Cc2ccc(O)cc2)C(=O)N[C@H](C(=O)N[C@@H](Cc2ccccc2)C(N)=O)C(C)C)NC(=O)[C@H](Cc2c[nH]c4ccccc24)NC(=O)[C@H](CCCCN)NC(=O)[C@H](Cc2c[nH]cn2)NC(=O)[C@H]([C@@H](C)O)NC(=O)[C@H](CCCNC(=N)N)NC(=O)[C@H](CO)NC3=O)NC(=O)[C@H](CCCCN)NC(=O)[C@H](CC(=O)O)NC(=O)[C@H](CC(N)=O)NC(=O)[C@H](CCC(=O)O)NC(=O)[C@@H]2CCCN2C1=O [compound 703] (H-DCLGAFRKCIPENDKCCRPNLVCSRTHKWCKYVF-NH2; disulfide 2-17, 9-23, 16-30) was tested. Which IC50 (hNav1.3) did it give?
A: 0.2 µM

Q: What about the IC50 (hNav1.5) of the same compound?
A: 45 µM

Q: And the IC50 (hNav1.7)?
A: 0.61 µM
